The target of assay [1] is T1, catalytic domain (JH1, amino acids 826-1132) of human JAK2 (Homo sapiens, UniProt O60674).
T1 construct: catalytic domain (JH1, amino acids 826-1132) of human JAK2; FLAG (N); purchased Carna Biosciences 08-445-20N; host or cells: baculovirus expression system
Briefly: JAK2 LanthaScreen JH1 Binding Assay. Conditions: JAK2 JH1 (1.5 nM), 50 nM fluorescent JAK2-JH1 tracer, 2 hours at 25° C.; read-out: JH1 BIND. In short, it runs like this:
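FLAG-tagged, biotinylated JAK2 JH1 (aa 826-1132, baculovirus-expressed; 1.5 nM) incubated 2 h at 25° C with compounds, 50 nM fluorescent tracer and 0.5 nM Streptavidin-Tb in Tris pH 7.5 buffer with MgCl2, Brij-35, BSA, EGTA, glycerol, DTT. Nonspecific binding defined with 2 mM ATP; TR-FRET IC50 from four-parameter fit.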

The target of assay [2] is T2, pseudo-kinase domain (JH2, amino-acids 536-812 with 3 surface mutations W659A, W777A, F794H) of human Wild Type JAK2 (Homo sapiens, UniProt O60674, F794H/W659A/W777A).
T2 construct: pseudo-kinase domain (JH2, amino-acids 536-812 with 3 surface mutations W659A, W777A, F794H); His (C); Avi (biotinylated) (C); purchased BPS Bioscience 79463; host or cells: baculovirus expression system
Briefly: JAK2 LanthaScreen JH2-WT Binding Assay. Conditions: JAK2 JH2-WT (0.145 nM), 50 nM Fluorescent JAK2-JH2 Tracer, 1 hour at 25° C.; read-out: JH2 BIND WT. In short, it runs like this:
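TR-FRET tracer displacement: IC50 from four-parameter dose-response fit. Reaction: compound, 0.145 nM biotinylated JH2 protein from baculovirus, 0.25 nM streptavidin-Tb and 50 nM tracer, 1 h at 25° C, 50 mM Tris pH 7.5 buffer. 2 mM ATP gave non-specific binding.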

The target of assay [3] is T3, pseudo-kinase domain (JH2, amino-acids 536-812 with 3 surface mutations W659A, W777A, F794H) of human V617F mutant JAK2 (Homo sapiens, UniProt O60674, F794H/V617F/W659A/W777A).
T3 construct: pseudo-kinase domain (JH2, amino-acids 536-812 with 3 surface mutations W659A, W777A, F794H); His (C); Avi (biotinylated) (C); purchased BPS Bioscience 79498; host or cells: baculovirus expression system
Briefly: JAK2 LanthaScreen JH2-V617F Binding Assay. The following applies: JAK2 JH2-V617F (0.26 nM), 50 nM Fluorescent JAK2-JH2 Tracer, 1 hour at 25° C.; read-out: JH2 BIND V617F. In outline:
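Competition of compounds with a fluorescent tracer (50 nM) for the biotinylated domain (0.26 nM), detected via streptavidin-Tb (0.25 nM) after 1 h at 25° C in pH 7.5 Tris buffer containing glycerol, BSA and Brij-35. ATP at 2 mM gave background. IC50 by four-parameter fit.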

Molecules are shown by their SMILES. pIC50: −log10 of the molar value.

T3 sequence (O60674 536-812 V617F/W659A/W777A/F794H): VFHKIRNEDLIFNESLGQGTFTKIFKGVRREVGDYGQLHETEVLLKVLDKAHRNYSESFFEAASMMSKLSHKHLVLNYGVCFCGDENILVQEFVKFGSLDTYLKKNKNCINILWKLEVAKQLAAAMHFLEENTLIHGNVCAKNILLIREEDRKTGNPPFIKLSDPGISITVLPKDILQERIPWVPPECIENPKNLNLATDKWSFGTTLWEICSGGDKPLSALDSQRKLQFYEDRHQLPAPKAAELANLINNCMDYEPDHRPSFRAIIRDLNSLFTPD
T1 sequence (O60674 826-1132): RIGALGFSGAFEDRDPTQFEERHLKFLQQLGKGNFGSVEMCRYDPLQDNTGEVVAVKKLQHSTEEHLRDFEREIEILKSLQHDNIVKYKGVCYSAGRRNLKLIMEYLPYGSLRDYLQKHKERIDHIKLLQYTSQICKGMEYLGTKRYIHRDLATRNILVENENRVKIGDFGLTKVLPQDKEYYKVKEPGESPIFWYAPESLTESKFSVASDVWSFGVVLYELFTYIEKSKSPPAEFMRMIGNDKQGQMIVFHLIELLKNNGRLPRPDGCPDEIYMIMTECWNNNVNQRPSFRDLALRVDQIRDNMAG
T2 sequence (O60674 536-812 W659A/W777A/F794H): as the sequence (O60674 536-812 V617F/W659A/W777A/F794H) above, with F82V counted along it

With `COc1ccc(-c2c(-c3cnn(Cc4ccncc4)c3)[nH]c3ncc4c(c23)n(C2CCCC2)c(=O)n4C)cc1` [Example 59, 1-Cyclopentyl-8-(4-methoxyphenyl)-3-methyl-7-(1-(pyridin-4-ylmethyl)-1H-pyrazol-4-yl)-3,6-dihydroimidazo[4,5-d]pyrrolo[2,3-b]pyridin-2(1H)-one], the figures for the pIC50 in assay [1], in assay [2] and in assay [3] were 6.30 to 7.00, no less than 8.00 and no less than 8.00, respectively.
Take `CCN1CCN(c2ccc(-c3cc4c(ncc5c4n(-c4ccccn4)c(=O)n5C)[nH]3)cc2)CC1` [Example 9, 7-(4-(4-Ethylpiperazin-1-yl)phenyl)-3-methyl-1-(pyridin-2-yl)-3,6-dihydroimidazo[4,5-d]pyrrolo[2,3-b]pyridin-2(1H)-one]: the pIC50 in assay [1], in assay [2] and in assay [3] was less than 6.00 each time.
As to `Cn1ncc2cc(-c3c(S(C)(=O)=O)[nH]c4ncc5c(c34)n(C3CCCC3)c(=O)n5C)ccc21` [Example 99, 1-Cyclopentyl-3-methyl-8-(1-methyl-1H-indazol-5-yl)-7-(methylsulfonyl)-3,6-dihydroimidazo [4,5-d]pyrrolo[2,3-b] pyridin-2(1H)-one], the pIC50 is less than 6.00 in assay [1], 6.00 to 6.30 in assay [2] and 6.00 to 6.30 in assay [3].
Regarding `CCN1CCN(c2ccc(-c3cc4c(ncc5c4n(Cc4cnn(C)c4)c(=O)n5C)[nH]3)cc2)CC1` [Example 16, 7-(4-(4-Ethylpiperazin-1-yl)phenyl)-3-methyl-1-((1-methyl-1H-pyrazol-4-yl)methyl)-3,6-dihydroimidazo[4,5-d]pyrrolo[2,3-b]pyridin-2(1H)-one], the pIC50 is 6.00 to 6.30 in assay [1], less than 6.00 in assay [2] and less than 6.00 in assay [3].
In the case of `CC(C)n1c(=O)n(C)c2cnc3[nH]c(-c4ccc(CN5CCC(S(C)(=O)=O)CC5)cc4)c(-c4ccccc4)c3c21` [Example 18, 1-Isopropyl-3-methyl-7-(4-((4-(methylsulfonyl)piperidin-1-yl)methyl)phenyl)-8-phenyl-3,6-dihydroimidazo[4,5-d]pyrrolo[2,3-b]pyridin-2(1H)-one], the pIC50 is 6.30 to 7.00 in assay [1], no less than 8.00 in assay [2] and no less than 8.00 in assay [3].
Turning to `CC(C)n1c(=O)n(C)c2cnc3[nH]c(-c4cnn(C)c4)c(C#Cc4ccccc4)c3c21` [Example 100, 1-Isopropyl-3-methyl-7-(1-methyl-1H-pyrazol-4-yl)-8-(phenylethynyl)-3,6-dihydroimidazo[4,5-d]pyrrolo[2,3-b]pyridin-2(1H)-one], the figures for the pIC50 in assay [1], in assay [2] and in assay [3] were 6.00 to 6.30, 6.30 to 7.00 and 6.30 to 7.00, respectively.
On to `CS(=O)(=O)C1CCN(Cc2ccc(-c3cc4c(ncc5[nH]c(=O)n(-c6ccccc6)c54)[nH]3)cc2)CC1` [Example 4, 7-(4-((4-(Methylsulfonyl)piperidin-1-yl)methyl)phenyl)-1-phenyl-3,6-dihydroimidazo [4,5-d]pyrrolo[2,3-b]pyridin-2(1H)-one], for which the pIC50 is 7.00 to 8.00 in assay [1], 6.30 to 7.00 in assay [2] and 6.30 to 7.00 in assay [3].
As for `COc1nn(C)cc1-c1[nH]c2ncc3c(c2c1-c1ccc2c(cnn2C)c1)n([C@H]1CC[C@@H](CC#N)CC1)c(=O)n3C` [Example 108, 2-((1S,4S)-4-(7-(3-methoxy-1-methyl-1H-pyrazol-4-yl)-3-methyl-8-(1-methyl-1H-indazol-5-yl)-2-oxo-3,6-dihydroimidazo[4,5-d]pyrrolo[2,3-b]pyridin-1(2H)-yl)cyclohexyl)acetonitrile], the pIC50 is less than 6.00 in assay [1], no less than 8.00 in assay [2] and no less than 8.00 in assay [3].
As to `Cc1cn2cc(-c3c(-c4cnn(CC(C)(C)O)c4)[nH]c4ncc5c(c34)n(C(C)C)c(=O)n5C)cc2cn1` [Example 84, 7-(1-(2-Hydroxy-2-methylpropyl)-1H-pyrazol-4-yl)-1-isopropyl-3-methyl-8-(3-methylpyrrolo[1,2-a]pyrazin-7-yl)-3,6-dihydroimidazo[4,5-d]pyrrolo[2,3-b]pyridin-2(1H)-one], the results for the pIC50 in assay [1], in assay [2] and in assay [3] were less than 6.00, no less than 8.00 and no less than 8.00, respectively.
As for `Cn1c(=O)n(C)c2c3c(-c4ccccc4)c(-c4cccnc4)[nH]c3ncc21` [Example 40, 1,3-Dimethyl-8-phenyl-7-(pyridin-3-yl)-3,6-dihydroimidazo[4,5-d]pyrrolo[2,3-b]pyridin-2(1H)-one], the pIC50 in assay [1] is less than 6.00; in assay [2], 6.00 to 6.30; in assay [3], less than 6.00.
As for `Cn1ncc2cc(-c3c(CCO)[nH]c4ncc5c(c34)n(C3CCCC3)c(=O)n5C)ccc21` [Example 70, 1-Cyclopentyl-7-(2-hydroxyethyl)-3-methyl-8-(1-methyl-1H-indazol-5-yl)-3,6-dihydroimidazo[4,5-d]pyrrolo[2,3-b]pyridin-2(1H)-one], the pIC50 in assay [1] is less than 6.00; in assay [2], 6.30 to 7.00; in assay [3], 6.30 to 7.00.
For the compound `Cn1ncc2cc(-c3c(C(O)C4CC4)[nH]c4ncc5c(c34)n(C3CCOCC3)c(=O)n5C)ccc21` (stereo not drawn) [Example 95, 7-(Cyclopropyl(hydroxy)methyl)-3-methyl-8-(1-methyl-1H-indazol-5-yl)-1-(tetrahydro-2H-pyran-4-yl)-3,6-dihydroimidazo[4,5-d]pyrrolo[2,3-b]pyridin-2(1H)-one], the pIC50 in assay [1] was less than 6.00; in assay [2], no less than 8.00; in assay [3], 7.00 to 8.00.
The matching figures for `CC(=O)NC1CCC(n2c(=O)n(C)c3cnc4[nH]c(-c5cnn(CC(C)(C)O)c5)c(-c5ccc6c(cnn6C)c5)c4c32)CC1` (stereo not drawn) [Example 74, N-(4-(7-(1-(2-Hydroxy-2-methylpropyl)-1H-pyrazol-4-yl)-3-methyl-8-(1-methyl-1H-indazol-5-yl)-2-oxo-3,6-dihydroimidazo[4,5-d]pyrrolo[2,3-b]pyridin-1(2H)-yl)cyclohexyl) acetamide]: 6.00 to 6.30, no less than 8.00 and no less than 8.00.
For `CC(C)n1c(=O)n(C)c2cnc3[nH]c(-c4cnn(CC(C)(C)O)c4)c(-c4ccc5c(c4)CCCO5)c3c21` [Example 79, 8-(Chroman-6-yl)-7-(1-(2-hydroxy-2-methylpropyl)-1H-pyrazol-4-yl)-1-isopropyl-3-methyl-3,6-dihydroimidazo[4,5-d]pyrrolo[2,3-b]pyridin-2(1H)-one], in that order: 6.30 to 7.00, no less than 8.00 and 7.00 to 8.00.
The matching figures for `Cn1c(=O)n(C2CCCCC2)c2c3cc(-c4ccc(CN5CCC(S(C)(=O)=O)CC5)cc4)[nH]c3ncc21` [Example 10, 1-Cyclohexyl-3-methyl-7-(4-((4-(methylsulfonyl)piperidin-1-yl)methyl)phenyl)-3,6-dihydroimidazo[4,5-d]pyrrolo[2,3-b]pyridin-2(1H)-one]: 7.00 to 8.00, 7.00 to 8.00 and 6.30 to 7.00.
Regarding `Cn1ncc2cc(-c3c(-c4ccc(CN5CCC(S(C)(=O)=O)CC5)cc4)[nH]c4ncc5c(c34)n(C3CCCC3)c(=O)n5C)ccc21` [Example 52, 1-Cyclopentyl-3-methyl-8-(1-methyl-1H-indazol-5-yl)-7-(4-((4-(methylsulfonyl)piperidin-1-yl)methyl)phenyl)-3,6-dihydroimidazo[4,5-d]pyrrolo[2,3-b]pyridin-2(1H)-one], the figures for the pIC50 in assay [1], in assay [2] and in assay [3] were 6.30 to 7.00, no less than 8.00 and no less than 8.00, respectively.
As to `Cn1c(=O)n(-c2ccccc2)c2c3cc(-c4ccc(CN5CCC(S(C)(=O)=O)CC5)cc4)[nH]c3ncc21` [Example 1, 3-Methyl-7-(4-((4-(methylsulfonyl)piperidin-1-yl)methyl)phenyl)-1-phenyl-3,6-dihydroimidazo[4,5-d]pyrrolo[2,3-b]pyridin-2(1H)-one], the pIC50 is 7.00 to 8.00 in assay [1], 7.00 to 8.00 in assay [2] and 6.30 to 7.00 in assay [3].
Regarding `Cn1ncc2cc(-c3c(-c4cnn(Cc5ccncc5)c4)[nH]c4ncc5c(c34)n(C3CCCC3)c(=O)n5C)ccc21` [Example 53, 1-Cyclopentyl-3-methyl-8-(1-methyl-1H-indazol-5-yl)-7-(1-(pyridin-4-ylmethyl)-1H-pyrazol-4-yl)-3,6-dihydroimidazo[4,5-d]pyrrolo[2,3-b]pyridin-2(1H)-one], the pIC50 was 6.30 to 7.00 in assay [1], no less than 8.00 in assay [2] and no less than 8.00 in assay [3].

For the origin of these results see US11780840B2 (Incyte Corporation, priority 2020, dated 2023).
